Test system: IPLB-Sf-21 cells
Assay: Determination of the biological activity of the peptides: cell count of serum-weaned IPLB-Sf-21 cultures after four days with peptide
Type: cell-based, Spodoptera frugiperda
Conditions: for peptide concentration at which the maximum growth-promoting effect was achieved: serum-free TC100 medium; for Rel. yield: IPLB-Sf-21, TC100 medium, 4 days
Experimental: IPLB-Sf-21 cells (ACC1 19, DSMZ in Braunschweig, Germany) were obtained from Dr. Victor Romanowski (Instituto de Bioquímica y Biología Molecular, Facultad de Ciencias Exactas, Universidad Nacional de la Plata, República Argentina) and maintained at 28° C. in TC-100 medium (Gibco/Life Technologies, Grand Island, N.Y., USA) containing 10% foetal calf serum (FCS, SIGMA, St. Louis, Mo., USA).
IPLB-Sf-21 cells were sown at a starting density of 5×10^4 cells in 1 ml of culture medium (TC-100+10% FCS) in the individual wells of 24-well culture plates. The plates were incubated at 27° C. for two days in a humidified chamber. During the following two days, the cultures were weaned off the serum additive by replacing the medium several times with pure TC100 medium and were then provided with the peptides or peptide fractions at various concentrations. Control cultures were cultivated in pure TC100 medium.
Four days later, the cells were harvested by being scraped off carefully. The cell count per culture well was determined by counting in a Neubauer chamber with an inverted microscope. The Neubauer chamber had two regions for counting. Each sample was counted three times in each of the two regions (six values per sample).

| Substance | peptide concentration at which the maximum growth-promoting effect was achieved (IPLB-Sf-21 cells) [µg/mL] | Rel. yield (Tripeptide concentration 0.01 μg/ml, cell yield relative to cultures without peptide and without FCS) | Rel. yield (Tripeptide concentration 0.1 μg/ml, cell yield relative to cultures without peptide and without FCS) | Rel. yield (Tripeptide concentration 1 μg/ml, cell yield relative to cultures without peptide and without FCS) | Rel. yield (Tripeptide concentration 10 μg/ml, cell yield relative to cultures without peptide and without FCS) | Rel. yield (Tripeptide concentration 100 μg/ml, cell yield relative to cultures without peptide and without FCS) | concentrations resulting in growth inhibition (very high concentrations, IPLB-Sf-21 cells) [µg/mL] | Rel. yield (Decapeptide concentration 0.01 μg/ml, cell yield relative to cultures without FCS) | Rel. yield (Decapeptide concentration 0.1 μg/ml, cell yield relative to cultures without FCS) | Rel. yield (Decapeptide concentration 1 μg/ml, cell yield relative to cultures without FCS) | Rel. yield (Decapeptide concentration 10 μg/ml, cell yield relative to cultures without FCS) | Rel. yield (Decapeptide concentration 100 μg/ml, cell yield relative to cultures without FCS) | effect of higher concentrations on cell growth (concentrations higher than 1 μg/ml, IPLB-Sf-21 cells) |
| --- | --- | --- | --- | --- | --- | --- | --- | --- | --- | --- | --- | --- | --- |
| AC-HQP-OH [Tripeptide] | 0.1 | 1.251 | 1.345 | 1.101 | 1.030 | 0.826 | > 10 | – | – | – | – | – | – |
| Ac-HQPHQPLPPT-OH [Decapeptide] | 1 | – | – | – | – | – | – | 1.051 | 1.182 | 1.272 | 1.175 | 0.866 | growth inhibition |
